From paper PMC3605511, “Tumor P-Glycoprotein Correlates with Efficacy of PF-3758309 in in vitro and in vivo Models of Colorectal Cancer” (Frontiers in Pharmacology, 2013)

Assays:
[1] = tested on: GEO cell line xenograft; assay: CRC cell line xenograft efficacy, GEO; assay type: in vivo, mice; settings: 25 mg/kg orally twice daily, 14–28 days, end of study tumor volumes
Experimental: (§1) For cell line xenografts, CRC cells were harvested in exponential phase growth and resuspended in a 1:1 mixture of serum-free RPMI 1640 and Matrigel (BD Biosciences). Five to ten million cells per mouse were injected subcutaneously into the flank using a 23-gauge needle. Mice were monitored daily for signs of toxicity and were weighed twice weekly. Tumor size was evaluated twice per week by caliper measurements using the following formula: tumor volume = length × width^2 × 0.52. When tumors reached 200–300 mm^3 mice were randomized into two groups with at least 10 tumors per group. Mice were then treated for 14–28 days (until control tumor volume reach ∼1500 mm^3) with either vehicle control (0.5% methylcellulose), or PF-3758309 (25 mg/kg) twice daily by oral gavage.
(§2) Human tumor xenograft models were used to evaluate the efficacy of PF-309 in vivo. Eleven different CRC cell line tumor xenografts were treated with 25 mg/kg PF-309 twice daily by oral gavage for 14–28 days (until control tumor volumes reached ∼1500 mm^3). Tumor volumes were measured throughout the study and the % growth inhibition was calculated from the average end of study tumor volumes by:
(§3) % Growth Inhibition= (average control volume−average treated volume)/average control volume×100%

[2] = tested on: DLD-1; assay: Cell proliferation assay, DLD-1; assay type: cell-based, human
Experimental: (§4) Cytotoxic/proliferation effects were determined using the sulforhodamine B (SRB) assay (Skehan et al., [1990]) or by resazurin. Briefly, cells in logarithmic growth phase were transferred to 96 well flat bottom plates with lids. One-hundred microliter cell suspensions containing 1500–5000 viable cells were plated into each well and incubated overnight prior to exposure with increasing concentrations of PF-309 for 3–5 days, dependent upon cell type. Media was removed and cells were fixed with cold 10% trichloroacetic acid for 30 min at 4°C. Cells were then washed with water and stained with 0.4% SRB (Fisher Sci., Pittsburgh, PA, USA) for 30 min at room temperature, washed again with 1% acetic acid, followed by stain solubilization with 10 mM tris at room temperature. The plate was then read on a plate reader (Biotek Synergy 2, Winooski, VT, USA) set at an absorbance wavelength of 565 nm. Cell proliferation curves were derived from the raw absorbance (OD) data.
In a subset of CRC cell lines, western blotting, and rhodamine efflux was used to verify the expression and function of P-gp. Consistent with the gene expression data, the sensitive cell lines, RKO, HCT116, and Colo205 show no P-gp expression and no functional P-gp, and the resistant lines, SW948, HCT15, and SW1116 express functional P-gp (Figures 3A,B). […]

[3] = tested on: CUCRC006 CRC PDTX model; assay: Patient derived tumor xenograft efficacy, CUCRC006; assay type: in vivo, mice; settings: 25 mg/kg orally twice daily, 22–56 days, end of study tumor volumes
Experimental: For patient tumor xenografts, surgical specimens of patients undergoing either removal of a primary or metastatic tumor at the University of Colorado Hospital are implanted subcutaneously into five mice for each patient with a 10-G trochar. After a subsequent growth and passage in mice, tumors are excised, and expanded into cohorts for treatment (n = 6–15 per group). Mice were treated with PF-309 or vehicle (0.5% methylcellulose) for 22–56 days (until control tumor volume reach ∼1500 mm^3) twice daily (BID) by oral gavage (PO). Monitoring of mice and measurements of tumors were conducted as described above. % Growth Inhibition= (average control volume−average treated volume)/average control volume×100% In addition to the cell line xenografts, we also treated 12 different patient derived tumor xenograft (PDTX) CRC models with PF-309 (Figure 6). We were unable to assess how ABCB1 gene expression correlated with efficacy in these models. The PDTX models are propagated in vivo, are not immortalized, and are not grown in in vitro culture. […] Tumor and plasma sample pairs were collected from animals at the end of study for eight tumor models (three cell line xenografts and five PDTX models) and concentrations of PF-309 were measured. […]

[4] = tested on: HCT15 cell line xenograft; assay: CRC cell line xenograft efficacy, HCT15; assay type: in vivo, mice; settings: 25 mg/kg orally twice daily, 14–28 days, end of study tumor volumes
Experimental: as §1, §2, §3

[5] = tested on: DLD1 PgP_KD2; assay: Proliferation after shRNA knockdown of P-gp, DLD1 PgP_KD2; assay type: cell-based; settings: Homo sapiens, DLD-1; DLD1 PgP_KD2 :50, P-gp shRNA knockdown
Experimental: as §4
The pGIPZ Pgp-specific shRNA expression cassettes, along with control shRNA plasmids including the original pGIPZ vector were purchased from Open Biosystems (Birmingham, AL, USA). […] Successful knockdown of specific genes and gene products was confirmed by semi-quantitative RT-PCR and immunoblotting with specific antibodies. […]

[6] = biological target: T1, P-gp (Homo sapiens, UniProt P08183); assay: MDR1-MDCK transwell assay (P-gp efflux); assay type: in vitro ADME; settings: dog, ratio of B → A flux to A → B flux, >2 = substrate
T1 construct: expressed in transfected cells; host or cells: MDR1-MDCK cells (canine kidney MDCK)
Experimental: Permeability and transporter substrate assays were performed as previously published (Feng et al., [2008]; Callegari et al., [2011]; Di et al., [2011]). Permeability assays were conducted in MDCKII-LE cells, which were generated by isolation of a subpopulation of cells with low expression of endogenous P-gp (Feng et al., [2008]; Callegari et al., [2011]; Di et al., [2011]). The use of MDCKII-LE cells are used to measure the passive permeability of compounds in place of MDCK wild-type or Caco-2 cells since both MDCK wild-type and Caco-2 cells are known to have some level of endogenous transporter expression which can affect the permeability measurement. P-gp efflux was determined in MDR1-MDCK cells and BCRP efflux was measured in BCRP-MDCKII-LE cells.
MDR1-MDCK and BCRP-MDCKII-LE transwell assays measure the effect of P-gp and BCRP, respectively, on transcellular flux. The efflux ratio, ratio of the B → A flux to the A → B flux, of PF-309 was measured to be 34.9 ± 7.9 in the MDR1-MDCK assay, indicating it is a strong substrate for P-gp. PF-309 was also determined to be substrate for BCRP as the efflux ratio was measured to be 7.6 ± 1.1. As a reference, compounds with efflux ratios >2 are considered to be substrates (Callegari et al., [2011]).

T1 sequence (P08183 whole entry): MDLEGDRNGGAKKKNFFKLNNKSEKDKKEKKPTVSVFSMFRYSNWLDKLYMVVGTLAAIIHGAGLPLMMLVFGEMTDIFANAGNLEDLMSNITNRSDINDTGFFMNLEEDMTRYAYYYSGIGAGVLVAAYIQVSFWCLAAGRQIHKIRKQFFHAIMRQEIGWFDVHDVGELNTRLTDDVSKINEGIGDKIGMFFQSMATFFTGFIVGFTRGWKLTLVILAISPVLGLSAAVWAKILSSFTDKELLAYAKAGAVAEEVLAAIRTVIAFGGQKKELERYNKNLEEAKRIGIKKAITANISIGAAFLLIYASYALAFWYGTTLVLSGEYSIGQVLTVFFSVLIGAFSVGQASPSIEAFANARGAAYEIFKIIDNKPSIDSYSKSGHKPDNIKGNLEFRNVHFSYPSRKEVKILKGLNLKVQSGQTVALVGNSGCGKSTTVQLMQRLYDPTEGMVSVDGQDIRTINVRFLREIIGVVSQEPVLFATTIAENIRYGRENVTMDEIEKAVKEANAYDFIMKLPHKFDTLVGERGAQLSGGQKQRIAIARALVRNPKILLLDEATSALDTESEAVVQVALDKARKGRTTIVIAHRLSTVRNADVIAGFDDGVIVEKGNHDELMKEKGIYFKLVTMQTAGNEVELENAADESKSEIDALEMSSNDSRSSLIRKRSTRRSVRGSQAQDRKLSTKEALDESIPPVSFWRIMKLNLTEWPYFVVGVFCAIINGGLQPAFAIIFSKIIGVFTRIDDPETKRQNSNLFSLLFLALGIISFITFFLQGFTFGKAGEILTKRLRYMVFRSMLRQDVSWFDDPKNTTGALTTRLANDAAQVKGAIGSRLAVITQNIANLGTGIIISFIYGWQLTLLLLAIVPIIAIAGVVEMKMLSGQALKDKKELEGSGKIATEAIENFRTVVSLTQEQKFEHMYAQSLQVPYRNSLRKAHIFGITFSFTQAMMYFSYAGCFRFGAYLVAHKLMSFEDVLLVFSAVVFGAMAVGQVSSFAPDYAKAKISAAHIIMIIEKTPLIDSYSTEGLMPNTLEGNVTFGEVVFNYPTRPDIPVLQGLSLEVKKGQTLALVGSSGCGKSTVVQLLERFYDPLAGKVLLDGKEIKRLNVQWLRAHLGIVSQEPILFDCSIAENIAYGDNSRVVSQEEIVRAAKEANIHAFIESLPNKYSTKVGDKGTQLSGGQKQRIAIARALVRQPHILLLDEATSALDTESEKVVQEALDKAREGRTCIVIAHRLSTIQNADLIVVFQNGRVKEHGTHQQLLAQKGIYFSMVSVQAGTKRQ

- shift in the IC50 by shRNA knockdown of P-gp ([2]; DLD-1 cells, P-gp knockdown vs control shRNA): four to six fold
- IC50 ([2]; Homo sapiens, DLD-1, PF-309 alone, 72 h): 278 nM
- IC50 [5]: 18 nM
- efflux ratio [6]: 34.9 ± 7.9
SMILES: Cc1nc(Nc2n[nH]c3c2CN(C(=O)N[C@H](CN(C)C)c2ccccc2)C3(C)C)c2sccc2n1 [PF-309]
- % Growth inhibition [1]: 42%
- % Growth inhibition [3]: 32%
- % Growth inhibition [4]: 18%
